From patent publication US20110081674A1, “CONTINUOUS-FLOW DEFORMABILITY-BASED CELL SEPARATION” (priority 2009, published 2011)

System: red blood cells (RBCs)
Assay: Deformability and mobility of glutaraldehyde-treated red blood cells at slits of the microfluidic device
Format: cell-based
Source text: FIG. 4 illustrates embodiments of: A. red blood cells (RBCs) aligned at the entrance of a 1 μm slit under a pressure difference of 40 kPa. […] Because the surface-area to volume ratio of RBCs is constrained, they are unable to pass through slits less than a certain gap width apart. B. RBCs treated with 0.1% Glutaraldehyde (GA) maintain their biconcave structure at the entrance of 2 μm slits under a pressure difference of 40 kPa. Glutaraldehyde cross-links proteins in the membrane and in the cytosol of RBCs, making them stiffer. […] C. Mobility vs. GA concentration. […] The slit gap is the vertical gap that defines the spacing between the two substrates at the trenches area. These are the shallow regions of a unit of the sorter.
With reference to FIG. 4A, a solution of PBS 1× and 0.2% w/v Pluronic F108 (a surfactant) and Bovine Serum Albumin 1% w/v (another surfactant) was prepared. The device was filled with this solution by applying pressure to one of the reservoirs. 1 μL of whole blood was mixed with 100 μL of this solution. The mixture was injected into the entrance reservoir of the device shown by using a syringe. The pressure difference between the two reservoirs was 40 kPa and was generated by using a pressure regulator. The cell concentration was approximately 0.5% hematocrit. Mobility was measured by tracking individual cells over a distance of 100 μm.

Structure (SMILES): O=CCCCC=O [Glutaraldehyde]
- Ability of treated RBCs to deform and pass through slits (RBCs treated with 0.1% Glutaraldehyde, 2 μm slits, pressure difference 40 kPa): unable to pass through 2 μm slits
- Mobility vs. GA concentration (higher GA concentration, given ambient fluid velocity): decreased mobility
